Reference: patent US8088828B2, “Treating benign prostate hyperplasia with SARMS” (priority 2002, dated 2012)

Tests used:
[1] = target: T1, human 5α-reductase type 2 (Homo sapiens, UniProt P31213); type: cell-based; details: testosterone 4 μM alone, 2 hours
T1 construct: expressed in transfected cells; host or cells: COS1 cells; expression vectors obtained from Dr. David W. Russell
T1 sequence (P31213 1-254): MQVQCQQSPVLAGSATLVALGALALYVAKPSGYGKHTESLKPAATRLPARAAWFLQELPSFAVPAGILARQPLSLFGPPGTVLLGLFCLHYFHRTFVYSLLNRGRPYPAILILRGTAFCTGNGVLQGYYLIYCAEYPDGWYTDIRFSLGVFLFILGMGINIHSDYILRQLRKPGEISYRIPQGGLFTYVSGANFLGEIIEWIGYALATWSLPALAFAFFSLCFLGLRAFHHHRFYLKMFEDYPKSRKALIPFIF
Experimental: (§1) Methods: COS1 (American Type Culture Collection, Manassas, Va.) cells were plated in twelve-well plates at a density of 60,000 cells/well and transiently transfected with expression vectors for human 5•-reductase (obtained from Dr. David W. Russell, Southwestern Medical Center, Dallas, Tex.). LipofectAMINE PLUS™ Reagent (Invitrogen, Carlsbad, Calif.) was used for transfection. pCMV•SPORT-•gal plasmid (Invitrogen, Carlsbad, Calif.) was co-transfected to monitor transfection efficiency. Forty-eight hours after transfection, testosterone (4 μM) and/or Compound VI (2 or 200 μM) were added to the medium and incubated at 37° C. Aliquots of the culture medium were removed after 2 hours and the reaction stopped by addition of ice-cold acetonitrile (1:1, vol:vol). Testosterone and Compound VI concentrations in the incubate were determined by HPLC using a reversed-phase column (μBondaPak C18, 3.9×300 mm, Waters Corporation, Milford, Mass.) and a mobile phase of 38% acetonitrile in deionized water at a flow rate of 1.5 ml/min. Analytes were detected by UV absorbance at 254 nm. Calibration curves were prepared using the peak areas to calculate the concentration of testosterone or Compound VI in the incubate at the completion of the reaction. Cells were lysed after the reaction and the cellular supernatant used to determine •-galactosidase activity and ensure equal transfection efficiency between wells.

[2] = target: T2, human 5α-reductase type 1 (Homo sapiens, UniProt P18405); type: cell-based; details: testosterone 4 μM alone, 2 hours
T2 construct: expressed in transfected cells; host or cells: COS1 cells; expression vectors obtained from Dr. David W. Russell
T2 sequence (P18405 1-259): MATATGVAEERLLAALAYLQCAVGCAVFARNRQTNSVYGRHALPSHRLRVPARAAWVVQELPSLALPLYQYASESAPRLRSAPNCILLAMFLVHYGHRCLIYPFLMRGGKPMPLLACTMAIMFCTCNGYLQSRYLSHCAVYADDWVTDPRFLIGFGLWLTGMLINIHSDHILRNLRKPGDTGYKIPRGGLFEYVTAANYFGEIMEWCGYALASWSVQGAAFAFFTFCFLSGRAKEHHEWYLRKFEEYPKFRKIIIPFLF
Experimental: as §1

[3] = test system: male Sprague-Dawley rats (intact, hemi-orchidectomized, castrated); experiment: Prostate, seminal vesicle and levator ani muscle weights in rats of varying hormonal status; type: in vivo, rat; details: 0.5 mg/day, 14 days
Description: (§2) Methods: Compound VI was synthesized and characterized in the laboratory of Dr. Duane Miller at the University of Tennessee, Memphis, Tenn. Male Sprague-Dawley rats were purchased from Harlan Biosciences (Indianapolis, Ind.). The animals were maintained on a 12-h cycle of light and dark with food and water available ad libitum. All animal studies were reviewed and approved by the Animal Care and Use Committee of The Ohio State University, and conformed to the Principles of Laboratory Animal Care. Immature male Sprague-Dawley rats weighing […] were randomly distributed into 9 groups of 5 animals. One day before the initiation of drug treatment, groups 4 through 6 and groups 7 through 9 received unilateral or bilateral orchidectomy, respectively, via a midline scrotal incision. […] All drugs given to animals were freshly prepared as solutions in polyethylene glycol 300 (PEG 300). Groups 4 and 7 received treatment with vehicle alone (i.e., PEG 300). Animals in groups 3, 6, and 9 received testosterone propionate (TP, 0.5 mg/day) via implantation of subdermal osmotic pumps (Model 2002, Durect Corporation, Palo Alto, Calif.). Animals in groups 2, 5, and 8 received Compound VI (0.5 mg/day) via implantation of subdermal osmotic pumps. After 14 days of drug treatment, rats were weighed, anesthetized, and sacrificed. Blood samples were collected by venipuncture of the abdominal aorta. Plasma samples were analyzed for testosterone, FSH, LH and osteocalcin. Testosterone concentrations were measured by AniLytics Inc. (Gaithersburg, Md.). FSH and LH levels were measured by the National Hormone and Peptide Program (Dr. A F Parlow, UCLA, CA). Plasma osteocalcin levels were determined using a commercially available rat osteocalcin EIA kit from Biomedical Technologies Inc. (Stoughton, Mass.). The ventral prostates, seminal vesicles, and levator ani muscle were removed and weighed. Osmotic pumps were also removed from animals to check for correct pump operation. The weights of all organs were normalized to body weight, and analyzed for any statistically significant differences between groups using single-factor ANOVA with the alpha value set a priori at p<0.05. The weights of prostates and seminal vesicles were used as indices for evaluation of androgenic activity, and the levator ani muscle weight was used to evaluate the anabolic activity. Statistical analyses of parameters from complete blood count or serum chemical profiling, wherever applicable, were performed by single-factor ANOVA with the alpha value set a priori at p<0.05.

[4] = test system: male Sprague-Dawley rats (intact, hemi-orchidectomized, castrated); experiment: Plasma testosterone, FSH, LH and osteocalcin in rats of varying hormonal status; type: in vivo, rat; details: for Plasma FSH levels / Plasma LH levels / Plasma osteocalcin levels / Plasma testosterone levels: 0.5 mg/day osmotic pump, 14 days
Description: as §2

## C[C@]12CC[C@H]3[C@@H](CCC4=CC(=O)CC[C@@]43C)[C@@H]1CC[C@@H]2O [Testosterone, testosterone, reference compound]
[1]
  decrease in testosterone concentration (conversion to DHT): 35%
[2]
  decrease in testosterone concentration (conversion to DHT): 34%

## CCC(=O)O[C@H]1CC[C@H]2[C@@H]3CCC4=CC(=O)CC[C@]4(C)[C@H]3CC[C@]12C [TP, testosterone propionate, reference compound]
[3]; castrated rats
  Levator ani muscle weight normalized to body weight: 87.27 ± 10.25 % of intact control
  Prostate weight normalized to body weight: 76.78 ± 10.43 % of intact control
  Seminal vesicle weight normalized to body weight: 63.48 ± 17.05 % of intact control
[3]; hemi-orchidectomized rats
  Levator ani muscle weight normalized to body weight: 98.63 ± 10.47 % of intact control
  Prostate weight normalized to body weight: 98.57 ± 7.98 % of intact control
  Seminal vesicle weight normalized to body weight: 114.19 ± 23.81 % of intact control
[3]; intact rats
  Levator ani muscle weight normalized to body weight: 95.61 ± 9.34 % of intact control
  Prostate weight normalized to body weight: 97.45 ± 10.82 % of intact control
  Seminal vesicle weight normalized to body weight: 103.95 ± 13.23 % of intact control
[4]; all surgical groups, 0.5 mg/day
  effect on plasma osteocalcin levels: no effect
[4]; castrated male rats, 0.5 mg/day
  effect on plasma FSH and LH levels: significant decrease
[4]; castrated rats
  Plasma FSH levels: 58.0 ± 6.9 † ‡ ng/ml
  Plasma LH levels: 6.702 ± 1.513 ‡ ng/ml
  Plasma osteocalcin levels: 65.976 ± 11.213 ng/mL
  Plasma testosterone levels: 0.258 ± 0.103 † ‡ ng/ml
[4]; hemi-orchidectomized rats
  Plasma FSH levels: 17.2 ± 3.3 ng/mL
  Plasma LH levels: 0.124 ± 0.092 ng/mL
  Plasma osteocalcin levels: 77.236 ± 24.418 ng/mL
  Plasma testosterone levels: 2.366 ± 1.232 ng/mL
[4]; intact rats
  Plasma FSH levels: 11.4 ± 1.7 ng/mL
  Plasma LH levels: 0.168 ± 0.173 ng/mL
  Plasma osteocalcin levels: 74.952 ± 15.399 ng/mL
  Plasma testosterone levels: 1.482 ± 0.416 ng/mL
